Assay results published in patent US10246456B2, “IRAK4 inhibiting agents” (BIOGEN MA INC., priority 2014, dated 2019).

molecular target: IRAK4 (Homo sapiens (Human), UniProt Q9NWZ3); experiment: IRAK-4 AlphaScreen biochemical kinase assay; conditions: 1 nM IRAK4, 1 mM ATP, 3.5 h at RT
Method in brief: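 AlphaScreen read-out: streptavidin beads bind the biotinylated peptide and protein A beads bind the anti-phosphothreonine antibody, so energy transfer reports phosphorylation of the peptide. The kinase is human IRAK-4.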

IRAK4, sequence (Q9NWZ3 whole entry, species assumed): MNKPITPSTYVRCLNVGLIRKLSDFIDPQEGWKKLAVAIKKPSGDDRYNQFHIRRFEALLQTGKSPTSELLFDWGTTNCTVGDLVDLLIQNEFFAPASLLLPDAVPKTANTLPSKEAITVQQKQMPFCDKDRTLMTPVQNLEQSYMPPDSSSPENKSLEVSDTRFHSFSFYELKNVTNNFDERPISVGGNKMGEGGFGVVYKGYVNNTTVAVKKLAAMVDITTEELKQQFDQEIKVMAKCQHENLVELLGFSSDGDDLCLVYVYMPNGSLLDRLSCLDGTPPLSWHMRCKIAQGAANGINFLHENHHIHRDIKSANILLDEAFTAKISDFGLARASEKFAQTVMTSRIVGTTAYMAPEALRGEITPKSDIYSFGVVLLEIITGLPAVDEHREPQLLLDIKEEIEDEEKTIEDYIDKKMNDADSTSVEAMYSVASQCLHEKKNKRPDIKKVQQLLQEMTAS

Compound	IC50 [µM]
CCC[C@H](N)c1nccc(-c2ccc3cnn(-c4cccc(CO)n4)c3c2)n1 [Example 405, (S)-(6-(6-(2-(1-aminobutyl)pyrimidin-4-yl)-1H-indazol-1-yl)pyridin-2-yl)methanol]	< 0.1
CCC[C@H](N)c1cncc(-c2ccc3cnn(-c4cccc(CO)n4)c3c2)n1 [Example 407, (S)-(6-(6-(6-(1-aminobutyl)pyrazin-2-yl)-1H-indazol-1-yl)pyridin-2-yl)methanol]	< 0.1
C[C@@H](N)c1ccnc(-c2ccc3cnn(-c4cccc(CO)n4)c3c2)n1 [Example 412, (R)-(6-(6-(4-(1-aminoethyl)pyrimidin-2-yl)-1H-indazol-1-yl)pyridin-2-yl)methanol]	1 to 10
[2H][C@](N)(CCC)c1cccc(-c2ccc3cnn(-c4cccc(CO)n4)c3c2)n1 [Example 419, deutero (S)-(6-(6-(6-(1-aminobutyl)pyridin-2-yl)-1H-indazol-1-yl)pyridin-2-yl)methanol]	< 0.1
CCCC1(N)CCCc2ccc(-c3ccc4cnn(-c5cccc(CO)n5)c4c3)nc21 (stereo not drawn) [Example 421, (6-(6-(8-amino-8-propyl-5,6,7,8-tetrahydroquinolin-2-yl)-1H-indazol-1-yl)pyridin-2-yl)methanol]	< 0.1
COCCOc1cc(-c2cccc([C@@H](N)C(F)CCO)n2)cc2c1cnn2-c1cccc(CO)n1 (stereo partly drawn) [Example 430, (4R)-4-amino-3-fluoro-4-(6-(1-(6-(hydroxymethyl)pyridin-2-yl)-4-(2-methoxyethoxy)-1H-indazol-6-yl)pyridin-2-yl)butan-1-ol]	< 0.1
COCCOc1cc(-c2cccc([C@H](N)C(F)CCO)n2)cc2c1cnn2-c1cccc(CO)n1 (stereo partly drawn) [Example 431, (4S)-4-amino-3-fluoro-4-(6-(1-(6-(hydroxymethyl)pyridin-2-yl)-4-(2-methoxyethoxy)-1H-indazol-6-yl)pyridin-2-yl)butan-1-ol]	0.1 to 1
COCCOc1cc(-c2cccc([C@@H](N)C(C)F)n2)cc2c1cnn2-c1cccc(CO)n1 (stereo partly drawn) [Example 433, (6-(6-(6-((1R)-1-amino-2-fluoropropyl)pyridin-2-yl)-4-(2-methoxyethoxy)-1H-indazol-1-yl)pyridin-2-yl)methanol]	< 0.1
C=CC[C@H](N)c1cccc(-c2ccc3cnn(-c4cccc(CO)n4)c3c2)n1 [Example 435, (S)-(6-(6-(6-(1-aminobut-3-en-1-yl)pyridin-2-yl)-1H-indazol-1-yl)pyridin-2-yl)methanol]	< 0.1
CCOc1cc(-c2cccc([C@@H](N)c3ccccc3)n2)cc2c1cnn2-c1cccc(CO)n1 [Example 440, (S)-(6-(6-(6-(amino(phenyl)methyl)pyridin-2-yl)-4-ethoxy-1H-indazol-1-yl)pyridin-2-yl)methanol]	< 0.1
CCC[C@H](N)c1cccc(-c2cc(OCCCO)c3cnn(-c4cccc(CO)n4)c3c2)n1 [Example 460, (S)-3-((6-(6-(1-aminobutyl)pyridin-2-yl)-1-(6-(hydroxymethyl)pyridin-2-yl)-1H-indazol-4-yl)oxy)propan-1-ol]	< 0.1
CC[C@H](N)c1cccc(-c2cc(OCCCO)c3cnn(-c4cccc(CO)n4)c3c2)n1 [Example 461, (S)-3-((6-(6-(1-aminopropyl)pyridin-2-yl)-1-(6-(hydroxymethyl)pyridin-2-yl)-1H-indazol-4-yl)oxy)propan-1-ol]	< 0.1
CCC[C@H](N)c1cccc(-c2cc(C#CC(C)(C)O)c3cnn(-c4cccc(CO)n4)c3c2)n1 [Example 462, (S)-4-(6-(6-(1-aminobutyl)pyridin-2-yl)-1-(6-(hydroxymethyl)pyridin-2-yl)-1H-indazol-4-yl)-2-methylbut-3-yn-2-ol]	1 to 10
COCCOc1cc(-c2cccc(C3(N)CCC3)n2)cc2c1cnn2-c1cncc(CO)n1 [Example 468, (6-(6-(6-(1-aminocyclobutyl)pyridin-2-yl)-4-(2-methoxyethoxy)-1H-indazol-1-yl)pyrazin-2-yl)methanol]	< 0.1
CCC[C@H](N)c1cccc(-c2cc(OCC(C)(C)O)c3cnn(-c4cccc(CO)n4)c3c2)n1 [Example 471, (S)-1-((6-(6-(1-aminobutyl)pyridin-2-yl)-1-(6-(hydroxymethyl)pyridin-2-yl)-1H-indazol-4-yl)oxy)-2-methylpropan-2-ol]	< 0.1
CCC[C@H](N)c1cccc(-c2cc(C3CCCO3)c3cnn(-c4cccc(CO)n4)c3c2)n1 (stereo partly drawn) [Example 477, (6-(6-(6-((S)-1-aminobutyl)pyridin-2-yl)-4-(tetrahydrofuran-2-yl)-1H-indazol-1-yl)pyridin-2-yl)methanol]	< 0.1
CCC[C@H](N)c1cccc(-c2cc([C@H]3CC[C@@H](C)O3)c3cnn(-c4cccc(CO)n4)c3c2)n1 [Example 478, (6-(6-(6-((S)-1-aminobutyl)pyridin-2-yl)-4-((2R,5R)-5-methyltetrahydrofuran-2-yl)-1H-indazol-1-yl)pyridin-2-yl)methanol]	< 0.1

The next lines start with the values.

IC50 [µM]	Compound
0.1 to 1	CCC[C@H](N)c1ccnc(-c2ccc3cnn(-c4cccc(CO)n4)c3c2)c1 [Example 404, (S)-(6-(6-(4-(1-aminobutyl)pyridin-2-yl)-1H-indazol-1-yl)pyridin-2-yl)methanol]
< 0.1	CCC[C@@H](N)c1nccc(-c2ccc3cnn(-c4cccc(CO)n4)c3c2)n1 [Example 406, (R)-(6-(6-(2-(1-aminobutyl)pyrimidin-4-yl)-1H-indazol-1-yl)pyridin-2-yl)methanol]
< 0.1	CCC[C@@H](N)c1cncc(-c2ccc3cnn(-c4cccc(CO)n4)c3c2)n1 [Example 408, (R)-(6-(6-(6-(1-aminobutyl)pyrazin-2-yl)-1H-indazol-1-yl)pyridin-2-yl)methanol]
< 0.1	COc1cc(-c2cccc([C@@H](N)CCCO)n2)cc2c1cnn2-c1cccc(CO)n1 [Example 409, (S)-4-amino-4-(6-(1-(6-(hydroxymethyl)pyridin-2-yl)-4-methoxy-1H-indazol-6-yl)pyridin-2-yl)butan-1-ol]
< 0.1	CCOc1cc(-c2cccc([C@@H](N)CCCO)n2)cc2c1cnn2-c1cccc(CO)n1 [Example 410, (S)-4-amino-4-(6-(4-ethoxy-1-(6-(hydroxymethyl)pyridin-2-yl)-1H-indazol-6-yl)pyridin-2-yl)butan-1-ol]
< 0.1	CC1(N)CCCc2ccc(-c3ccc4cnn(-c5cccc(CO)n5)c4c3)nc21 (stereo not drawn) [Example 420, (6-(6-(8-amino-8-methyl-5,6,7,8-tetrahydroquinolin-2-yl)-1H-indazol-1-yl)pyridin-2-yl)methanol]
< 0.1	CCC[C@H](N)c1cccc(-c2cc(C3CCN(C)CC3)c3cnn(-c4cccc(CO)n4)c3c2)n1 [Example 424, (S)-(6-(6-(6-(1-aminobutyl)pyridin-2-yl)-4-(1-methylpiperidin-4-yl)-1H-indazol-1-yl)pyridin-2-yl)methanol]
< 0.1	CCC[C@H](N)c1cccc(-c2cc(OCCO)c3cnn(-c4cccc(CO)n4)c3c2)n1 [Example 426, (S)-2-((6-(6-(1-aminobutyl)pyridin-2-yl)-1-(6-(hydroxymethyl)pyridin-2-yl)-1H-indazol-4-yl)oxy)ethanol]
< 0.1	COCCOc1cc(-c2cccc([C@@H](N)CCCO)n2)cc2c1cnn2-c1cncc(CO)n1 [Example 428, (S)-4-amino-4-(6-(1-(6-(hydroxymethyl)pyrazin-2-yl)-4-(2-methoxyethoxy)-1H-indazol-6-yl)pyridin-2-yl)butan-1-ol]
< 0.1	CC#CC[C@H](N)c1cccc(-c2cc(OCC)c3cnn(-c4cccc(CO)n4)c3c2)n1 [Example 441, (S)-(6-(6-(6-(1-aminopent-3-yn-1-yl)pyridin-2-yl)-4-ethoxy-1H-indazol-1-yl)pyridin-2-yl)methanol]
< 0.1	CC(=O)C[C@H](N)c1cccc(-c2ccc3cnn(-c4cccc(CO)n4)c3c2)n1 [Example 449, (S)-4-amino-4-(6-(1-(6-(hydroxymethyl)pyridin-2-yl)-1H-indazol-6-yl)pyridin-2-yl)butan-2-one]
< 0.1	COCCOc1cc(-c2cccc([C@@H](N)CC(C)(F)F)n2)cc2c1cnn2-c1cccc(CO)n1 [Example 455, (S)-(6-(6-(6-(1-amino-3,3-difluorobutyl)pyridin-2-yl)-4-(2-methoxyethoxy)-1H-indazol-1-yl)pyridin-2-yl)methanol]
< 0.1	C[C@H](N)c1cccc(-c2cc(OCCCO)c3cnn(-c4cccc(CO)n4)c3c2)n1 [Example 459, (S)-3-((6-(6-(1-aminoethyl)pyridin-2-yl)-1-(6-(hydroxymethyl)pyridin-2-yl)-1H-indazol-4-yl)oxy)propan-1-ol]
0.1 to 1	COCCOc1cc(-c2cccc(C3(N)COC3)n2)cc2c1cnn2-c1cccc(CO)n1 [Example 465, (6-(6-(6-(3-aminooxetan-3-yl)pyridin-2-yl)-4-(2-methoxyethoxy)-1H-indazol-1-yl)pyridin-2-yl)methanol]
< 0.1	COCCOc1cc(-c2cccc(C3(N)CCOC3)n2)cc2c1cnn2-c1cccc(CO)n1 (stereo not drawn) [Example 466, (6-(6-(6-(3-aminotetrahydrofuran-3-yl)pyridin-2-yl)-4-(2-methoxyethoxy)-1H-indazol-1-yl)pyridin-2-yl)methanol]
< 0.1	COCCOc1cc(-c2cccc(C3(N)CCC3)n2)cc2c1cnn2-c1cccc(CO)n1 [Example 467, (6-(6-(6-(1-aminocyclobutyl)pyridin-2-yl)-4-(2-methoxyethoxy)-1H-indazol-1-yl)pyridin-2-yl)methanol]
< 0.1	COCCOc1cc(-c2cccc(C3(N)CCCC3)n2)cc2c1cnn2-c1cccc(CO)n1 [Example 469, (6-(6-(6-(1-aminocyclopentyl)pyridin-2-yl)-4-(2-methoxyethoxy)-1H-indazol-1-yl)pyridin-2-yl)methanol]
0.1 to 1	CCC[C@H](N)c1cccc(-c2cc(OCCS(C)(=O)=O)c3cnn(-c4cccc(CO)n4)c3c2)n1 [Example 470, (S)-(6-(6-(6-(1-aminobutyl)pyridin-2-yl)-4-(2-(methylsulfonyl)ethoxy)-1H-indazol-1-yl)pyridin-2-yl)methanol]
1 to 10	C[C@H](N)c1cccc(-c2ccc3cnn(-c4cccc(C(=O)O)n4)c3c2)n1 [Example 472, 6-{6-[6-((S)-1-Amino-ethyl)-pyridin-2-yl]-indazol-1-yl}-pyridine-2-carboxylic acid]
